One assay deals with plasma lipase. Nature of the assay: Effect of long term treatment on plasma lipase activity. The class given is in vivo, male WBN/Kob rats. The following applies: 9.5 months; for Plasma Lipase Activity: control 33.7 ± 7.8. The source says:
In pancreatitis, secretion of digestive enzymes is impaired and delivery of digestive enzymes to the duodenum is reduced. In addition, digestive enzymes leak into the blood and their level in the blood and urine increase. Accordingly, the extent of pancreatitis can be estimated by measuring the amount of digestive enzymes which have leaked into the blood (Methods of Clinical Examination: Kinbara Publisher).
The measurement of digestive enzymes may also be carried out by conventional procedures. For example, after the test drug mixed into powdered feed has been administered to male WBN/Kob rats for a definite period, the blood may be collected and the lipase activity (one of the digestive enzymes) in the plasma may be measured.
(§1) The test animals were male WBN/Kob rats. Each group of test animals contained 6 animals, and the animals were used for the experiment when they had reached 12 weeks old. The animals were fed with powdered feed F2 mixed with 0.2% or 0.05% of troglitazone for 9.5 months. These groups are hereinafter referred to as "the 0.2% group" and "the 0.05% group", respectively. The average doses of the compound during this period were 120 mg/kg/day and 30 mg/kg/day, respectively. Meanwhile, another six rats (control group) were fed with the powdered feed F2 only. After the rats had been fed with the feeds for 9.5 months, each rat was decapitated and its blood was collected. The blood serum was separated and the plasma lipase level was measured using an autoanalyser (type 7250, manufactured by Hitachi Ltd.).

A short description of assay [1]: Effect of long term treatment on pancreatic weight. Format: in vivo, male WBN/Kob rats. The settings on record: 9.5 months; for Pancreatic weight: control 804 ± 35. On the procedure: as §1
After the blood had been collected, the pancreas of each animal was totally enucleated and weighed.

Setting [2] is: 0.05% group, 30 mg/kg/day in feed.
Where [3] appears, read: both the 0.2% group and the 0.05% group, vs. control group.

Structures are written as SMILES.

For the compound `Cc1c(C)c2c(c(C)c1O)CCC(C)(COc1ccc(CC3SC(=O)NC3=O)cc1)O2` (stereo not drawn) [troglitazone, 5-[4-(6-Hydroxy-2,5,7,8-tetramethylchroman-2-ylmethoxy)benzyl]thiazolidine-2,4-dione], the “Plasma Lipase Activity” value in the assay with plasma lipase (setting [2]) was 17.5 ± 2.2 IU/l; with plasma lipase (0.2% group, 120 mg/kg/day in feed, *p < 0.05), 13.2 ± 1.0 IU/l. Further, the “Plasma lipase activity (in words)” value in the assay with plasma lipase (setting [3]) was “significant decrease”. The “Pancreatic weight” value in assay [1] (setting [2]) is 906 ± 63 mg; in assay [1] (0.2% group, 120 mg/kg/day in feed, ***p < 0.001), 1164 ± 52 mg. Besides, the “Pancreatic weight (in words)” value in assay [1] (setting [3]) is recorded as “significant increase”.

Values taken from patent publication US5753681A, “Treatment and prophylaxis of pancreatitis” (Sankyo Company, Limited, priority 1996, dated 1998).
